Laboratory results from publication PMC8876114, “Cytotoxicity and anti-HIV activities of extracts of the twigs of Croton dichogamus Pax” (BMC Complementary Medicine and Therapies, 2022).
Converted amounts (≈) assume the structure as drawn. Read-outs that look alike come from different tables or passages of the source.

Key:
[1] = test system: Caco-2 human colon carcinoma cell lines; settings: cited from earlier work
[2] = test system: human T-lymphocytic MT-4 cells; type: cell-based; settings: for CC50 (50% cytotoxic concentration): MT-4 cells, MTT, mean ± S.E.M; for MNTC (maximum nontoxic concentration): human
Protocol: In this study, human T-lymphocytic MT-4 cells (ARP-120) were obtained through the National Institute of Health (NIH) HIV Reagent Program, Division of AIDS, National Institute of Allergy, and Infectious Diseases (NIAID), NIH: MT-4 Cells, ARP-120, contributed by Dr. Douglas Richman. The cytotoxicity test was conducted to evaluate the plant extracts' safety by measuring cell death caused by the plant extracts. The assay was conducted using the MTT colorimetric assay as described previously.
Four solvent fractions of twigs of C. dichogamus were examined for their ability to inhibit HIV-1 replication. In addition, the in vitro toxicity of these extracts to human T-lymphocytic MT-4 cells was investigated by MTT assay. […] The average absorbance value from three replicate determinations was used to express the viability of the cells as a percentage of negative controls, and the CC50 for each plant extract was determined graphically by plotting the % growth inhibition (Emaxc) against the plant extract concentration.

[3] = test system: HIV-1IIIB laboratory-adapted strain; assay: Anti-HIV activity test: prevention of HIV-1 cytopathic effect in MT-4 cells (MTT); type: cell-based, Human immunodeficiency virus type 1; settings: for IC50: Human immunodeficiency virus 1, MT4, read-out: IC50 (50% antiviral effect concentration); for EmaxAV (maximum antiviral effect %): inhibition of viral-induced cytopathic effect, HIV-1IIIB in MT-4 cells; for SI (selectivity index): ratio of CC50 to IC50, MT-4 cells
Protocol: Human immunodeficiency virus type 1 (HIV-1) IIIB (also referred to as HTLV-IIIB) was obtained through the NIH HIV Reagent Program, Division of AIDS, NIAID, NIH: Human Immunodeficiency Virus-1 IIIB, ARP-398, contributed by Dr. Robert Gallo. The effects of the test compounds in preventing the cytopathic effect resulting from HIV-1 replication were evaluated by the MTT colorimetric assay described above.
The laboratory-adapted strain of human immunodeficiency virus type 1 (HIV-1IIIB) obtained from the National Institutes of Health HIV Reagent Program was used in this experiment. A total of 50 µl of different concentrations ([…]) of the test compounds were seeded into 96-well flat-bottomed microtiter culture plates containing HIV-infected MT-4 cells.

HIV [4] = test system: HIV; set-up: method as in PMID 8176401; settings: cited from earlier work
HIV [5] = settings: cell-based in vitro assay; literature report, no reference given; cited from earlier work
HIV [6] = test system: HIV; set-up: method as in PMID 14980692; settings: cited from earlier work
SMMC-7721 = test system: SMMC-7721; set-up: method as in PMID 23103294; settings: SMMC-7721, MTT method; read-out: IC50 (cytotoxicity); cited from earlier work
HL-60 = test system: HL-60; set-up: method as in PMID 23103294; settings: HL-60, MTT method; read-out: IC50 (cytotoxicity); cited from earlier work
A-549 = test system: A-549; set-up: method as in PMID 23103294; settings: A-549, MTT method; read-out: IC50 (cytotoxicity); cited from earlier work
MCF-7 = test system: MCF-7; set-up: method as in PMID 23103294; settings: MCF-7, MTT method; read-out: IC50 (cytotoxicity); cited from earlier work
SW-480 = test system: SW-480; set-up: method as in PMID 23103294; settings: SW-480, MTT method; read-out: IC50 (cytotoxicity); cited from earlier work
[7] = HIV-1IIIB-infected MT-4 cells, MTT, mean ± S.E.M

10-epi-manninsigin D
decrease of viability ([1]; Caco-2, at a concentration of 100 mM): 43%

Nc1nc(NC2CC2)c2ncn([C@H]3C=C[C@@H](CO)C3)c2n1 [ABC, abacavir]
CC50 (50% cytotoxic concentration) [2]: 0.26 ± 0.00 µg/mL (≈ 0.908 µM)
MNTC (maximum nontoxic concentration) [2]: 0.18 ± 0.03 µg/mL
IC50 [3, 7]: 0.05 ± 0.031 µg/mL (≈ 0.175 µM)
EmaxAV (maximum antiviral effect %) ([3]; mean ± S.E.M): 58.67 ± 0.43%
SI (selectivity index) [3]: 5.0

Cc1cn([C@H]2C[C@H](N=[N+]=[N-])[C@@H](CO)O2)c(=O)[nH]c1=O [AZT, zidovudine]
IC50 [3]: 0.002 µg/mL (≈ 0.00748 µM)
EmaxAV (maximum antiviral effect %) ([3]; mean ± S.E.M): 83.5 ± 0.57%
EmaxAV (maximum antiviral effect %) ([3]; mean ± S.E.M, listed as zidovudine): 83.5%

Cc1ccnc2c1NC(=O)c1cccnc1N2C1CC1 [NVP, nevirapine]
CC50 (50% cytotoxic concentration) [2]: 0.82 ± 0.0 µg/mL (≈ 3.08 µM)
MNTC (maximum nontoxic concentration) [2]: 0.57 ± 0.0 µg/mL
IC50 [3, 7]: 0.24 ± 0.09 µg/mL (≈ 0.901 µM)
EmaxAV (maximum antiviral effect %) ([3]; mean ± S.E.M): 72.53 ± 0.47%
SI (selectivity index) [3]: 3.5

C[C@H](Cn1cnc2c(N)ncnc21)OCP(=O)(O)O [TDF, tenofovir]
CC50 (50% cytotoxic concentration) [2]: 6.73 ± 0.24 µg/mL (≈ 23.4 µM)
MNTC (maximum nontoxic concentration) [2]: 4.92 ± 0.71 µg/mL
IC50 [3, 7]: 0.04 ± 0.01 µg/mL (≈ 0.139 µM)
EmaxAV (maximum antiviral effect %) ([3]; mean ± S.E.M): 80.55 ± 0.46%

C=C(C)[C@@H]1CC[C@]2(C(=O)O)CC[C@]3(C)[C@H](CC[C@@H]4[C@@]5(C)CC[C@H](O)C(C)(C)[C@@H]5CC[C@]43C)[C@@H]12 [betulinic acid]
anti-HIV activity (in words) (HIV [4]): exhibited anti-HIV activity

CC1=CC[C@]2(C)CC(=O)[C@]3(C)C(=O)C=C(C(C)C)[C@@H]3[C@H]2CC1 [cyanthiwigin B]
anti-HIV activity (in words) (HIV [5]): Moderate anti-HIV activity

CC1(C)CC[C@]2(C(=O)O)CC[C@]3(C)C(=CC[C@@H]4[C@@]5(C)CC[C@H](O)C(C)(C)[C@@H]5CC[C@]43C)[C@@H]2C1 [oleanolic acid]
anti-HIV activity (in words) (HIV [4]): exhibited anti-HIV activity

CC(=O)[C@@H]1CC[C@]2(C(=O)O)CC[C@]3(C)[C@H](CC[C@@H]4[C@@]5(C)CC[C@H](O)C(C)(C)[C@@H]5CC[C@]43C)[C@@H]12 [platanic acid]
anti-HIV activity (in words) (HIV [4]): exhibited anti-HIV activity

acetin
anti-HIV activity (in words) (HIV [6]): potent anti-HIV activity

furocrotinsulolide
cytotoxicity activity (in words) ([1]; Caco-2 cell line, at 30 μm): modest cytotoxicity activity

maninsigin D
IC50 (SMMC-7721): > 40 µM
IC50 (HL-60): > 40 µM
IC50 (A-549): > 40 µM
IC50 (MCF-7): > 40 µM
IC50 (SW-480): > 40 µM
